In patent publication US20140057895A1, “INDAZOLE- AND PYRROLOPYRIDINE-DERIVATIVE AND PHARMACEUTICAL USE THEREOF” (priority 2011, published 2014):

How the values were obtained:
human 5-HT4b receptor = biological target: T1, human 5-HT4b receptor (Homo sapiens, UniProt Q13639); assay: Test Example 4: Serotonin 4 (5-HT4) receptor agonist activity assay, cAMP HTRF in CHO cells (Table 100); type: cell-based; conditions: mean value; for Emax: CHO, 0.25 h, intrinsic activity, maximal activity of 5-HT defined as 100%, read-out: IA (%); for EC50: concentration showing 50% of IA
T1 construct: expressed in transfected cells; host or cells: CHO cells (G418 selection)
How it was run: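 Read-out is HTRF cAMP (time-resolved fluorescence 620/665 nm after 1 h RT with cAMP-cryptate and cAMP-d2), from recombinant CHO cells bearing human 5-HT4b treated with compound 15 min at 31° C. in Hanks/HEPES buffer pH 7.4. IA (%) scaled to peak 5-HT effect over 10^−11–10^−7 M; EC50 is concentration giving half that IA.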

[1] = biological target: T2, Human 5-HT4 receptor (5-HT4b) (Homo sapiens, UniProt Q13639); assay: Test Example 3: Human 5-HT4 receptor binding assay, membranes of CHO-K1 cells stably expressing 5-HT4b receptors (Table 99); conditions: mean value of each group
T2 construct: expressed in transfected cells; membrane preparation
How it was run: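 Radioligand displacement: [3H]-GR113808 (0.1 nM) bound to CHO-K1 5-HT4b membranes for 30 min at 37 °C in Hepes buffer (50 mM, pH 7.4). Specific binding is total minus that with 30 μM serotonin; filter-bound radioactivity counted, IC50 derived from percent inhibition.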

T2 sequence (Q13639 whole entry): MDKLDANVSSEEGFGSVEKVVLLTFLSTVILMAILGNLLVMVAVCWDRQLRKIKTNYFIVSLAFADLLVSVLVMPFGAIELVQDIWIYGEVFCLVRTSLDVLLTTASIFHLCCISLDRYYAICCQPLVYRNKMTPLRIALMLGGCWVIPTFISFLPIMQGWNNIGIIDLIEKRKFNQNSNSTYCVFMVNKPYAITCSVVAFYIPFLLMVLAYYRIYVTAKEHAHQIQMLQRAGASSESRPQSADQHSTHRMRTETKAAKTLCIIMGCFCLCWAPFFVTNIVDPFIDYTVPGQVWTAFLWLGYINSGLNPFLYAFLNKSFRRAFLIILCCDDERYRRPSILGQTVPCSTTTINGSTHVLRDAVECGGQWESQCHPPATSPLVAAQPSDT
T1 sequence (Q13639 whole entry): as above

SMILES	Emax (human 5-HT4b receptor) [%]	EC50 (human 5-HT4b receptor) [nM]	IC50 [1] [nM]
CC(=O)N1CCC[C@H]1CN1CC[C@H](Cc2nc(-n3nc(C(C)C)c4cccc(F)c43)no2)C1 [Example 497, 1-[(2S)-2-{[(3R)-3-({3-[7-fluoro-3-(propan-2-yl)-1H-indazol-1-yl]-1,2,4-oxadiazol-5-yl}methyl)pyrrolidin-1-yl]methyl}pyrrolidin-1-yl]ethanone]	88	5.8	76.1
CC(C)c1nn(-c2noc(C[C@@H]3CCN(C[C@@H]4CCN(S(C)(=O)=O)C4)C3)n2)c2c(F)cccc12 [Example 516, 7-fluoro-1-(5-{[(3S)-1-{[(3S)-1-(methylsulfonyl)pyrrolidin-3-yl]methyl}pyrrolidin-3-yl]methyl}-1,2,4-oxadiazol-3-yl)-3-(propan-2-yl)-1H-indazole]	75	7.2	< 20
CC(C)c1nn(-c2noc(C[C@H]3CCN(C[C@@H]4CCCN4S(C)(=O)=O)C3)n2)c2c(F)cccc12 [Example 498, 7-fluoro-1-(5-{[(3R)-1-{[(2S)-1-(methylsulfonyl)pyrrolidin-2-yl]methyl}pyrrolidin-3-yl]methyl}-1,2,4-oxadiazol-3-yl)-3-(propan-2-yl)-1H-indazole]	36	3.4	< 20
CC(C)c1nn(-c2noc(C3CCN([C@H]4[C@@H]5CCC[C@H]4CN(C(=O)CO)C5)CC3)n2)c2c(F)cccc12 [Example 536, 1-[(9-syn)-9-(4-{3-[7-fluoro-3-(propan-2-yl)-1H-indazol-1-yl]-1,2,4-oxadiazol-5-yl}piperidin-1-yl)-3-azabicyclo[3.3.1]non-3-yl]-2-hydroxyethanone]	100	3.7	< 20
CCc1nn(-c2noc(C3CCN(C4(C)CCN(C(C)=O)CC4)CC3)n2)c2c(F)cccc12 [Example 491, 1-{4-[3-(3-ethyl-7-fluoro-1H-indazol-1-yl)-1,2,4-oxadiazol-5-yl]-4′-methyl-1,4′-bipiperidin-1′-yl}ethanone]	91	4.4	< 20
CC(=O)N1CC[C@H](NC2CC(c3nc(-n4nc(C(C)C)c5cccc(F)c54)no3)C2)C1 (stereo partly drawn) [Example 591, 1-{(3S)-3-[(3-{3-[7-fluoro-3-(propan-2-yl)-1H-indazol-1-yl]-1,2,4-oxadiazol-5-yl}cyclobutyl)amino]pyrrolidin-1-yl}ethanone]	97	2.6	< 20
CC(C)c1nn(-c2noc(C[C@@H]3CCN(C[C@H]4CCN(C(=O)CO)C4)C3)n2)c2c(F)cccc12 [Example 550, 1-[(3R)-3-{[(3S)-3-({3-[7-fluoro-3-(propan-2-yl)-1H-indazol-1-yl]-1,2,4-oxadiazol-5-yl}methyl)pyrrolidin-1-yl]methyl}pyrrolidin-1-yl]-2-hydroxyethanone]	85	5.1	< 20
CC(C)c1nn(-c2noc(C3CCN(C[C@H]4CCN(S(C)(=O)=O)C4)CC3)n2)c2c(F)cccc12 [Example 586, 7-fluoro-1-[5-(1-{[(3R)-1-(methylsulfonyl)pyrrolidin-3-yl]methyl}piperidin-4-yl)-1,2,4-oxadiazol-3-yl]-3-(propan-2-yl)-1H-indazole]	105	2.2	< 20
CC(=O)N1CC[C@H](CN2CC[C@H](Cc3nc(-n4nc(C(C)C)c5cccc(F)c54)no3)C2)C1 [Example 505, 1-[(3R)-3-{[(3R)-3-({3-(7-fluoro-3-(propan-2-yl)-1H-indazol-1-yl]-1,2,4-oxadiazol-5-yl}methyl)pyrrolidin-1-yl]methyl}pyrrolidin-1-yl]ethanone]	52	5.5	< 20
CC(C)c1nn(-c2noc([C@H]3C[C@@H](NCC4CCN(S(C)(=O)=O)CC4)C3)n2)c2c(F)cccc12 [Example 594, cis-3-{3-[7-fluoro-3-(propan-2-yl)-1H-indazol-1-yl]-1,2,4-oxadiazol-5-yl}-N-{[1-(methylsulfonyl)piperidin-4-yl]methyl}cyclobutanamine]	106	2.3	< 20
